From paper PMC8162404, “Proteomimetic surface fragments distinguish targets by function” (Chemical Science, 2020)

What was measured:
S100A4 = molecular target: T1, S100A4 (Homo sapiens, UniProt P26447); test: Pull-down assay with immobilized protein and LSM libraries; format: binding; conditions: for Kd: H14 library, 1:1 binding assumed, read-out: Surface mapping KD (apparent)
T1 construct: made in house; host or cells: Escherichia coli BL21(DE3)
Method in brief: (§1)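 Buffers were HEPES pH 7.4 with 150 mM NaCl, plus 1 mM TCEP and 1 mM CaCl2 (50 mM HEPES) for S100A4 and S100B, 1 mM TCEP for Gal-1, and no additive for RecQ-WH. Immobilized protein at 64 µM was equilibrated 30 min with the LSM sublibrary, and unbound probes were measured by LC-MS.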

Gal-1 [1] = molecular target: T2, Gal-1 (Homo sapiens, UniProt P09382); test: as above; format: binding; conditions: H14 library; 1:1 binding assumed; read-out: Surface mapping KD (apparent)
T2 construct: made in house; host or cells: E. coli BL21(DE3)
T2 sequence (P09382 whole entry): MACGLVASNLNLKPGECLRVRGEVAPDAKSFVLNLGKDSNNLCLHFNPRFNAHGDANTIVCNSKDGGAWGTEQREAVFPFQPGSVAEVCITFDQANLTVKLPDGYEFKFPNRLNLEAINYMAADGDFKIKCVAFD
Method in brief: (§2)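 His-tagged protein immobilized on Co-NTA resin (64 µM) in 20 mM HEPES pH 7.4, 150 mM NaCl, equilibrated 30 min at room temperature with foldamer LSM sublibraries at equimolar total concentration. Unbound fractions quantified by HPLC-MS versus protein-free resin control; apparent KD assumes 1:1 binding.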

CaM [2] = molecular target: T3, CaM (Bos taurus, UniProt P62157); test: Competition pull-down with native ligand TRPV1-Ct15; format: binding, bovine; conditions: H14 library; competitor peptide 200 µM; read-out: Surface mapping KD (apparent), competition
T3 construct: made in house; host or cells: E. coli BL21 (DE3)

RecQ-WH = molecular target: T4, RecQ-WH (Escherichia coli, UniProt P15043); test: Pull-down assay with immobilized protein and LSM libraries; set-up: species or system E. coli; conditions: H14 library; 1:1 binding assumed; read-out: Surface mapping KD (apparent)
T4 construct: coding for residues 408– 523 of E. coli RecQ; made in house; host or cells: E. coli BL21(DE3)
T4 sequence (P15043 408-523): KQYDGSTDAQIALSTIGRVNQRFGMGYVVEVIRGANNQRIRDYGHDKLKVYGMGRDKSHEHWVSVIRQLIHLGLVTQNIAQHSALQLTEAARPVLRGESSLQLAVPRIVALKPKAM
Method in brief: as §2

CaM [3] = molecular target: T3, CaM; test: as above; format: binding, bovine; conditions: H14 library; 1:2 stoichiometry assumed; read-out: Surface mapping KD (apparent)
Method in brief: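 His-tagged protein immobilized on Co-NTA resin, equilibrated 30 min at room temperature with LSM sublibraries (64 members, […]), equimolar protein to total probe. CaM buffer: 20 mM HEPES pH 7.4, 150 mM NaCl, 5 mM CaCl2. Bound fractions from HPLC-MS loss of unbound probe versus protein-free resin control; Kd derived.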

S100B [4] = molecular target: T5, S100B (Homo sapiens, UniProt P04271); test: Competition pull-down with native ligand RSK1 (689–735); format: binding; conditions: H14 library; competitor peptide 200 µM; read-out: Surface mapping KD (apparent), competition
T5 construct: made in house; host or cells: Escherichia coli BL21(DE3)
T5 sequence (P04271 1-92): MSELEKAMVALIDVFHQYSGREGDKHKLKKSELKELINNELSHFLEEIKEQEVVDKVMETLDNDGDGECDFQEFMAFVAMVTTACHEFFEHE

S100B [5] = molecular target: T5, S100B; test: Pull-down assay with immobilized protein and LSM libraries; format: binding; conditions: for Kd: H14 library, 1:1 binding assumed, read-out: Surface mapping KD (apparent)
Method in brief: as §1

Gal-1 [6] = molecular target: T2, Gal-1; test: Competition pull-down with lactose; format: binding; conditions: H14 library; lactose 10 mM; read-out: Surface mapping KD (apparent), competition
Method in brief: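 His6-tagged proteins immobilized on Co-NTA resin at 64 µM final with 64-member LSM foldamer sublibraries (1 M each, as printed) in pH 7.4 HEPES/NaCl buffers (Ca2+/TCEP per target), 30 min RT; competitor peptides 200 µM final, lactose 10 mM for Gal-1. Bound fractions from LC-MS loss vs protein-free resin; KD assuming 1:1 binding.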

[7] = H14 probes selected for validation

T1 sequence (P26447 whole entry): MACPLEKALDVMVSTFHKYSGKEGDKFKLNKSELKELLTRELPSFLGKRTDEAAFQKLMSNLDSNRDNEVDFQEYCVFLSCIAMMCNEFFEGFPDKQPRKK

Row | SMILES | Kd (S100A4) [µM] | Kd (Gal-1 [1]) [µM] | Kd (CaM [2]) [µM] | Kd (RecQ-WH) [µM] | Kd (CaM [3]) [µM] | Kd (S100B [4]) [µM] | Kd (S100B [5]) [µM] | Kd (Gal-1 [6]) [µM] | Binding (S100B [5]; H14 probes) | Affinity class of probe (high, medium, low) in pull-down (S100B [5]; [7]) | Binding (S100A4; H14 probes) | Affinity class of probe (high, medium, low) in pull-down (S100A4; [7])
1 | C[C@@H](CC(=O)N[C@H]1CCCC[C@@H]1C(N)=O)NC(=O)[C@H]1CCCC[C@@H]1NC(=O)[C@H]1CCCC[C@@H]1NC(=O)C[C@H](Cc1ccc(O)cc1)NC(=O)[C@H]1CCCC[C@@H]1N [H14 YA] | 217 | 342 | 366 | 329 | 15 | 436 | – | – | – | – | – | –
2 | CSCC[C@@H](CC(=O)N[C@H]1CCCC[C@@H]1C(N)=O)NC(=O)[C@H]1CCCC[C@@H]1NC(=O)[C@H]1CCCC[C@@H]1NC(=O)C[C@H](Cc1ccc(O)cc1)NC(=O)[C@H]1CCCC[C@@H]1N [H14 YM] | 90 | 98 | 402 | 263 | 7 | 344 | 176 | 133 | – | – | – | –
3 | CC(C)C[C@@H](CC(=O)N[C@H]1CCCC[C@@H]1C(N)=O)NC(=O)[C@H]1CCCC[C@@H]1NC(=O)[C@H]1CCCC[C@@H]1NC(=O)C[C@H](Cc1ccc(O)cc1)NC(=O)[C@H]1CCCC[C@@H]1N [H14 YL] | 19 | 148 | 428 | 150 | 2 | 201 | 62 | 256 | – | – | – | –
4 | CC[C@H](C)[C@@H](CC(=O)N[C@H]1CCCC[C@@H]1C(N)=O)NC(=O)[C@H]1CCCC[C@@H]1NC(=O)[C@H]1CCCC[C@@H]1NC(=O)C[C@H](Cc1ccc(O)cc1)NC(=O)[C@H]1CCCC[C@@H]1N [H14 YI] | 19 | 148 | 428 | 150 | 2 | 201 | 62 | 256 | – | – | – | –
5 | C[C@@H](O)[C@@H](CC(=O)N[C@H]1CCCC[C@@H]1C(=O)N[C@H]1CCCC[C@@H]1C(=O)N[C@H](CC(=O)N[C@H]1CCCC[C@@H]1C(N)=O)Cc1c[nH]c2ccccc12)NC(=O)[C@H]1CCCC[C@@H]1N [H14 TW] | 189 | 143 | – | 288 | 16 | 258 | 47 | 147 | binds | medium | does not | low
6 | C[C@@H](CC(=O)N[C@H]1CCCC[C@@H]1C(N)=O)NC(=O)[C@H]1CCCC[C@@H]1NC(=O)[C@H]1CCCC[C@@H]1NC(=O)C[C@H](Cc1ccccc1)NC(=O)[C@H]1CCCC[C@@H]1N [H14 FA] | 58 | 130 | 309 | 282 | 3 | 330 | 253 | 151 | – | – | – | –
7 | NCCCC[C@@H](CC(=O)N[C@H]1CCCC[C@@H]1C(N)=O)NC(=O)[C@H]1CCCC[C@@H]1NC(=O)[C@H]1CCCC[C@@H]1NC(=O)C[C@H](Cc1c[nH]c2ccccc12)NC(=O)[C@H]1CCCC[C@@H]1N [H14 WK] | 136 | 262 | 201 | 287 | 1.1 | 412 | 40 | 252 | – | – | – | –
8 | CSCC[C@@H](CC(=O)N[C@H]1CCCC[C@@H]1C(N)=O)NC(=O)[C@H]1CCCC[C@@H]1NC(=O)[C@H]1CCCC[C@@H]1NC(=O)C[C@H](CCCCN)NC(=O)[C@H]1CCCC[C@@H]1N [H14 KM] | 95 | – | 146 | 459 | 63 | 140 | 119 | – | – | – | – | –
9 | CSCC[C@@H](CC(=O)N[C@H]1CCCC[C@@H]1C(=O)N[C@H]1CCCC[C@@H]1C(=O)N[C@H](CC(=O)N[C@H]1CCCC[C@@H]1C(N)=O)Cc1ccc(O)cc1)NC(=O)[C@H]1CCCC[C@@H]1N [H14 MY] | 90 | 98 | 402 | 263 | 15 | 330 | 176 | 133 | – | – | – | –
10 | NCCCC[C@@H](CC(=O)N[C@H]1CCCC[C@@H]1C(N)=O)NC(=O)[C@H]1CCCC[C@@H]1NC(=O)[C@H]1CCCC[C@@H]1NC(=O)C[C@H](Cc1ccccc1)NC(=O)[C@H]1CCCC[C@@H]1N [H14 FK] | 141 | 154 | – | 424 | 4 | 391 | 63 | 153 | – | – | – | –
11 | CSCC[C@@H](CC(=O)N[C@H]1CCCC[C@@H]1C(=O)N[C@H]1CCCC[C@@H]1C(=O)N[C@H](CC(=O)N[C@H]1CCCC[C@@H]1C(N)=O)C(C)C)NC(=O)[C@H]1CCCC[C@@H]1N [H14 MV] | 21 | 178 | – | 294 | 3 | 360 | 118 | 218 | – | – | – | –
12 | CC(C)C[C@@H](CC(=O)N[C@H]1CCCC[C@@H]1C(=O)N[C@H]1CCCC[C@@H]1C(=O)N[C@H](CC(=O)N[C@H]1CCCC[C@@H]1C(N)=O)Cc1ccc(O)cc1)NC(=O)[C@H]1CCCC[C@@H]1N [H14 LY] | 26 | 231 | 455 | 239 | 10 | 154 | 85 | – | – | – | – | –
13 | CSCC[C@@H](CC(=O)N[C@H]1CCCC[C@@H]1C(=O)N[C@H]1CCCC[C@@H]1C(=O)N[C@H](CC(=O)N[C@H]1CCCC[C@@H]1C(N)=O)Cc1c[nH]c2ccccc12)NC(=O)[C@H]1CCCC[C@@H]1N [H14 MW] | 41 | 141 | 208 | 197 | 2 | 131 | 44 | 172 | – | – | – | –
14 | C[C@@H](O)[C@@H](CC(=O)N[C@H]1CCCC[C@@H]1C(N)=O)NC(=O)[C@H]1CCCC[C@@H]1NC(=O)[C@H]1CCCC[C@@H]1NC(=O)C[C@H](Cc1c[nH]c2ccccc12)NC(=O)[C@H]1CCCC[C@@H]1N [H14 WT] | 157 | – | 135 | 165 | 6 | 242 | 107 | – | – | – | – | –
15 | C[C@@H](CC(=O)N[C@H]1CCCC[C@@H]1C(N)=O)NC(=O)[C@H]1CCCC[C@@H]1NC(=O)[C@H]1CCCC[C@@H]1NC(=O)C[C@H](Cc1c[nH]c2ccccc12)NC(=O)[C@H]1CCCC[C@@H]1N [H14 WA] | 55 | – | 307 | 293 | 3 | 220 | 58 | – | – | – | – | –
16 | CC(C)C[C@@H](CC(=O)N[C@H]1CCCC[C@@H]1C(N)=O)NC(=O)[C@H]1CCCC[C@@H]1NC(=O)[C@H]1CCCC[C@@H]1NC(=O)C[C@H](C)NC(=O)[C@H]1CCCC[C@@H]1N [H14 AL] | 7 | 127 | – | 401 | 13 | 313 | 108 | 272 | – | – | – | –
17 | NC(=O)[C@H]1CCCC[C@@H]1NC(=O)C[C@H](Cc1ccccc1)NC(=O)[C@H]1CCCC[C@@H]1NC(=O)[C@H]1CCCC[C@@H]1NC(=O)C[C@H](CC(=O)O)NC(=O)[C@H]1CCCC[C@@H]1N [H14 DF] | – | – | 220 | 288 | – | 130 | 339 | 388 | – | – | – | –
18 | CSCC[C@@H](CC(=O)N[C@H]1CCCC[C@@H]1C(N)=O)NC(=O)[C@H]1CCCC[C@@H]1NC(=O)[C@H]1CCCC[C@@H]1NC(=O)C[C@H](CCSC)NC(=O)[C@H]1CCCC[C@@H]1N [H14 MM] | 14 | 183 | 448 | 455 | 16 | 276 | 174 | – | – | – | – | –
